Experimental findings from paper PMC3069973, “A Fungal Metabolite Asperparaline A Strongly and Selectively Blocks Insect Nicotinic Acetylcholine Receptors: The First Report on the Mode of Action” (PLoS ONE, 2011) are described below.

The target in experiment [1] is T1, L-glutamate-gated chloride channel (native, silkworm larval brain neurons, subunits not identified) (Bombyx mori, UniProt V9P9S1).
T1 construct: native receptors in cultured larval brain neurons
T1 sequence (V9P9S1 25-446): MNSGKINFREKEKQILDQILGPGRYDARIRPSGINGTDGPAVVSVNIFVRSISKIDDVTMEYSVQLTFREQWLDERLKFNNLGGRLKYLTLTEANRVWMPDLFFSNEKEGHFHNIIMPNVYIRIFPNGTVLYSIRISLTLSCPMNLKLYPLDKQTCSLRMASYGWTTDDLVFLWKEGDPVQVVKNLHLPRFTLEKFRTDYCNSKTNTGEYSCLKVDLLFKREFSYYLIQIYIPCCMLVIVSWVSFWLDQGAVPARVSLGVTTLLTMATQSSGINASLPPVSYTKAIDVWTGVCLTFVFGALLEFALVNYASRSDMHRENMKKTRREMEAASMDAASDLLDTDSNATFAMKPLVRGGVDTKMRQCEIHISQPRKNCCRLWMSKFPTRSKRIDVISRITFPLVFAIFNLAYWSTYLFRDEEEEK
The experiment in a line: whole-cell patch-clamp, agonist-evoked current at […] (stated to be close to EC50). It counts as cell-based. (In general: The patch-clamp technique gives a direct electrical read-out from membranes.)

Experiment [2] deals with T2, nicotinic acetylcholine receptor (native nAChRs of silkworm larval brain neurons, subunits not identified).
T2 construct: native receptors in cultured larval brain neurons
In words: whole-cell patch-clamp, agonist concentration-response. The class given is cell-based, Bombyx mori.

The test system is the same in experiment [3]. The experiment in a line: whole-cell patch-clamp, block of peak ACh-induced current (slowly desensitizing current IC50 […]). It counts as cell-based, Bombyx mori.
The target of experiment [4] is T3, α3β4 nicotinic acetylcholine receptor (Gallus gallus, UniProt P09481+P26153).
T3 construct: gene CHRNA3; chicken α3β4 nAChR expressed in Xenopus laevis oocytes; with nAChR β4 subunit
T3 sequence (P09481 23-496): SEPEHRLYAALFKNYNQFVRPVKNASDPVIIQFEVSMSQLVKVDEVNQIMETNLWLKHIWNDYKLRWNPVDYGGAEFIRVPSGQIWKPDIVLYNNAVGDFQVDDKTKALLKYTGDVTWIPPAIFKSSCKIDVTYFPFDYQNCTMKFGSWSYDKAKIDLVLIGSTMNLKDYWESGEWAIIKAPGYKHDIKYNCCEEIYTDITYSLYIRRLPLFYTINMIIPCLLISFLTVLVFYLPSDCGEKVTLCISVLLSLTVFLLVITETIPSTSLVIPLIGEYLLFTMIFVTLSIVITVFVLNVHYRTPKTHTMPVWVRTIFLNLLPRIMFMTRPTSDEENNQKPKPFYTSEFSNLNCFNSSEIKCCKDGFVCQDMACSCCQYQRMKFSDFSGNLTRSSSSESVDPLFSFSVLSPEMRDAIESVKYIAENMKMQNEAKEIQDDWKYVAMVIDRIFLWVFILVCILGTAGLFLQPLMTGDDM
T3 sequence (P26153 4-470): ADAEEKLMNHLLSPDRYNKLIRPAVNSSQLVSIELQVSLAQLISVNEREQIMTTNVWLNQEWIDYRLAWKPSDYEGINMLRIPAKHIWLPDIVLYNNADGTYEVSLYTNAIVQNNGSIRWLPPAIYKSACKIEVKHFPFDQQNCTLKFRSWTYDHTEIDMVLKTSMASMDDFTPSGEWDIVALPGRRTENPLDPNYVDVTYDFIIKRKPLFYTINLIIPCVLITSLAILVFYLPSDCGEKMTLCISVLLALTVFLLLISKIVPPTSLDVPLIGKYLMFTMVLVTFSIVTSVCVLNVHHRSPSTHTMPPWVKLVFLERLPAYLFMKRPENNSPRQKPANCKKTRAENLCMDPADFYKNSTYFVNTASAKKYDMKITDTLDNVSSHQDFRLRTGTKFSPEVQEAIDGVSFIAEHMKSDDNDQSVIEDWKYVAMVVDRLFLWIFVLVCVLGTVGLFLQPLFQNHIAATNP
In words: two-electrode voltage-clamp, weak block:[…] reduction of the ACh response at […]. The class given is cell-based.

What is called EC50 is the midpoint of the concentration-response curve. Low readings indicate greater potency, high ones weaker potency. On to `N[C@@H](CCC(=O)O)C(=O)O` [L-glutamate], for which the EC50 in experiment [1] is recorded as ~ 30 µM.
`CC(=O)OCC[N+](C)(C)C` [acetylcholine]: the EC50 in experiment [2] came to […].
Broadly, the IC50 is the concentration at which inhibition is half-maximal. The inhibition is how much of the control response was suppressed. Higher therefore signals strong suppression. As for `C[C@H]1CCN2C[C@]34C[C@]5(CC(=O)N(C)C5=O)C(C)(C)[C@@H]3C[C@]12C(=O)N4C` [asperparaline A], in experiment [3], the concentration for half-maximal inhibition (IC50) is 0.0202 µM. This molecule came in with an inhibition at 10 µM in experiment [4] of 33.4%.
